Assay results from patent publication US12673936B2, “Isoindolinone compounds, and uses thereof” (HANGZHOU GLUBIO PHARMACEUTICAL CO., LTD., priority 2021, dated 2026).

Assays:
HiBiT tagged GSPT1 = HiBiT tagged GSPT1 (Homo sapiens, UniProt P15170+Q96SW2); experiment: GSPT1 degradation assay (HiBiT assay); assay type: cell-based; conditions: 20 hours, maximum GSPT1 degradation; for Dmax: HT-1080, HT-1080 cells; for HiBiT GSPT1: Dmax: HT-1080 cells
Summary of the method: (§1)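 HT-1080 cells stably expressing wild-type CRBN, GSPT1A(1-138)/G575N and HiBiT-tagged CK1α or GSPT1, ~10,000/well, treated with compound from 3.162×10^-4 μM to 10 μM (3.16-fold steps). HiBiT luminescence normalized to DMSO as percent of control.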

HiBiT tagged CK1α = HiBiT tagged CK1α (Homo sapiens, UniProt P48729+Q96SW2); experiment: CK1α degradation assay (HiBiT assay); assay type: cell-based; conditions: 20 hours; for Dmax: HT-1080, HT-1080 cells; for Dmax / HiBiT CK1α: Dmax: maximum CK1α degradation; for DC50 / HiBiT CK1α: Dmax: HT-1080 cells; for DC50: concentration at 50% CK1α degradation
Summary of the method: as §1

Chain of HiBiT tagged CK1α (P48729 whole entry): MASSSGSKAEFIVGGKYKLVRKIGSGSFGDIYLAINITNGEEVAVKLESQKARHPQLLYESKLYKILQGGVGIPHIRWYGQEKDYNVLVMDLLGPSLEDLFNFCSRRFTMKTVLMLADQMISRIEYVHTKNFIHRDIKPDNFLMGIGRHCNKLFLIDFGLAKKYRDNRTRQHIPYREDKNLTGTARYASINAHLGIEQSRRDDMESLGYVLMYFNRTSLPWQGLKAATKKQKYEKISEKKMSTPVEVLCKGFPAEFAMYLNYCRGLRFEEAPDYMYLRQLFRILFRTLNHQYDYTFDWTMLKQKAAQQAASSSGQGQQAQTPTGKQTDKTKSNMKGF
Chain of HiBiT tagged CK1α (Q96SW2 whole entry): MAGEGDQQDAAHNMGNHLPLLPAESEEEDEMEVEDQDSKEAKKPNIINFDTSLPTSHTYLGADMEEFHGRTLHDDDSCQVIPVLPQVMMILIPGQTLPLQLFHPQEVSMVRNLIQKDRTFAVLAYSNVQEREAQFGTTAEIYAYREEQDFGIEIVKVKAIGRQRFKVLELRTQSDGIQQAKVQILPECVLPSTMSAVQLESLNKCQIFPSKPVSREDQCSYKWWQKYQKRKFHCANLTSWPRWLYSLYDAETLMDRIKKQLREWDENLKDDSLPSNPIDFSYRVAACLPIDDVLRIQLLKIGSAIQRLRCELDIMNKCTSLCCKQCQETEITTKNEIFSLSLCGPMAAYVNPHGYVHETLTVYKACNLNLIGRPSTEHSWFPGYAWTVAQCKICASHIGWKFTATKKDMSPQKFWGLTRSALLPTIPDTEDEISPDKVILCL
Chain of HiBiT tagged CK1α (Q16531 whole entry partner): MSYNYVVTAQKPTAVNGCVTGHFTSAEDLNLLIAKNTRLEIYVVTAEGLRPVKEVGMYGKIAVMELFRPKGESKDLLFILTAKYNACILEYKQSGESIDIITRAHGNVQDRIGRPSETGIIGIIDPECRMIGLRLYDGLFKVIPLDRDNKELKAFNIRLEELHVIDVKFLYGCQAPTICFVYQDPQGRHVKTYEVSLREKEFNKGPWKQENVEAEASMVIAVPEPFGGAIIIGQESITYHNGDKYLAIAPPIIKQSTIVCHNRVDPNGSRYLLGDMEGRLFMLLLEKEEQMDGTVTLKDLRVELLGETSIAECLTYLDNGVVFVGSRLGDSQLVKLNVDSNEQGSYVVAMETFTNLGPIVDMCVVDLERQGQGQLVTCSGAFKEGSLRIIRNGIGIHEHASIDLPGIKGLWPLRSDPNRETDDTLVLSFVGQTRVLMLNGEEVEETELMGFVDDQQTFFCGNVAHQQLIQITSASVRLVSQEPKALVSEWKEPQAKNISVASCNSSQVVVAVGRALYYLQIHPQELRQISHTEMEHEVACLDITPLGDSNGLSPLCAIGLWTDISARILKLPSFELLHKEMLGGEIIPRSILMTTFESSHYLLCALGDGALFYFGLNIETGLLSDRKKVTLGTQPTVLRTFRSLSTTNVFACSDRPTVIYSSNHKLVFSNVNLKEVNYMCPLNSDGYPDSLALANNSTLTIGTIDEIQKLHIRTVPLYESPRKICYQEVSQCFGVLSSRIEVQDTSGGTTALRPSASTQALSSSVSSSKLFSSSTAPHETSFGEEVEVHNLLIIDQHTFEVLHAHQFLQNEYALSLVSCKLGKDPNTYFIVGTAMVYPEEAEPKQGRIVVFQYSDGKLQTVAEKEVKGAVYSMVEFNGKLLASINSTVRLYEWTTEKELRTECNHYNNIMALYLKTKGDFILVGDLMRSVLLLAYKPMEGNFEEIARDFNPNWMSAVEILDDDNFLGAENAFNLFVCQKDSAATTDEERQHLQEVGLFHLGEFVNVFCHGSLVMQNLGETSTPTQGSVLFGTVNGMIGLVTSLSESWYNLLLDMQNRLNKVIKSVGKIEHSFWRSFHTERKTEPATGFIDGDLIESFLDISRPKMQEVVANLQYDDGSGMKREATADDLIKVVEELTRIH
Chain of HiBiT tagged GSPT1 (P15170 whole entry): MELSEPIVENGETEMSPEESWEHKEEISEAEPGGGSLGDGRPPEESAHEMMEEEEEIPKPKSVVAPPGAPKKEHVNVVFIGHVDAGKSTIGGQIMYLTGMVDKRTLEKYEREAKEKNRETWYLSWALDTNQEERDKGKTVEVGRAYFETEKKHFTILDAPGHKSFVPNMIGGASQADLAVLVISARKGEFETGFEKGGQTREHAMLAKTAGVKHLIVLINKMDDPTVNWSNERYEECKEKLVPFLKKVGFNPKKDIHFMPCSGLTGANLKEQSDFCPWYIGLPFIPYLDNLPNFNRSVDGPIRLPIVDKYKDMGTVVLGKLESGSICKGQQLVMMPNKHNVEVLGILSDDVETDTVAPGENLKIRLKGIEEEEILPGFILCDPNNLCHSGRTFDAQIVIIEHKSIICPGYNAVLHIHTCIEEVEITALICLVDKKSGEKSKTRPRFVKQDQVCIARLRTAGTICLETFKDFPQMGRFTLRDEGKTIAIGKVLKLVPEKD
Chain of HiBiT tagged GSPT1 (Q96SW2 whole entry): as the sequence (Q96SW2 whole entry) above
Chain of HiBiT tagged GSPT1 (Q16531 whole entry partner): as the sequence (Q16531 whole entry partner) above

| Dmax (HiBiT tagged GSPT1) [%] | Dmax (HiBiT tagged CK1α) [%] | DC50 (HiBiT tagged CK1α) [nM] | HiBiT GSPT1: Dmax (HiBiT tagged GSPT1) [%] | HiBiT CK1α: Dmax (HiBiT tagged CK1α) [%] | Structure (SMILES) |
| --- | --- | --- | --- | --- | --- |
| 62.1 | 47.9 |  |  |  | Cc1cccc([C@@H](NC(=O)c2ccc3c(c2)CN(C2CCC(=O)NC2=O)C3=O)C2CC2)c1 (stereo in doubt) [Compound 30, N-((*S)-cyclopropyl(m-tolyl)methyl)-2-(2,6-dioxopiperidin-3-yl)-1-oxoisoindoline-5-carboxamide] |
| 30.7 | 58.4 | 417 |  |  | O=C1CCC(N2Cc3cc(C(=O)N[C@H](c4cccc(F)c4)C4CC4)ccc3C2=O)C(=O)N1 (stereo in doubt) [Compound 26, N-((*S)-cyclopropyl(3-fluorophenyl)methyl)-2-(2,6-dioxopiperidin-3-yl)-1-oxoisoindoline-5-carboxamide] |
| 32.4 | 54.6 | 1300 |  |  | O=C1CC[C@H](N2Cc3cc(C(=O)N[C@H](c4ccc(F)c(F)c4)C4CCC4)ccc3C2=O)C(=O)N1 (racemic) [Compound 46, N-((*R)-cyclobutyl(3,4-difluorophenyl)methyl)-2-((*S)-2,6-dioxopiperidin-3-yl)-1-oxoisoindoline-5-carboxamide] |
| 24.5 | 73.2 | 66.6 |  |  | COc1ccccc1C(NC(=O)c1ccc2c(c1)CN(C1CCC(=O)NC1=O)C2=O)C1CC1 (stereo not shown) [Compound 15, N-(cyclopropyl(2-methoxyphenyl)methyl)-2-(2,6-dioxopiperidin-3-yl)-1-oxoisoindoline-5-carboxamide] |
| 36 | 60.8 | 706 |  |  | O=C1CCC(N2Cc3cc(C(=O)N[C@H](c4ccc(F)cc4)C4CC4)ccc3C2=O)C(=O)N1 (stereo in doubt) [Compound 10, N-((*S)-cyclopropyl(4-fluorophenyl)methyl)-2-(2,6-dioxopiperidin-3-yl)-1-oxoisoindoline-5-carboxamide] |
| 29.3 | 49.5 |  |  |  | O=C1CCC(N2Cc3cc(C(=O)N[C@H](c4ccc(F)cc4)C4CCCC4)ccc3C2=O)C(=O)N1 (mixture of isomers) [Compound 61, N-((*S)-cyclopentyl(4-fluorophenyl)methyl)-2-((R)-2,6-dioxopiperidin-3-yl)-1-oxoisoindoline-5-carboxamide] |
| 66.3 | 56.3 | 1300 |  |  | O=C1CCC(N2Cc3cc(C(=O)N[C@@H](c4cccc(C(F)(F)F)c4)C4CC4)ccc3C2=O)C(=O)N1 (stereo in doubt) [Compound 33, N-((*R)-cyclopropyl(3-(trifluoromethyl)phenyl)methyl)-2-(2,6-dioxopiperidin-3-yl)-1-oxoisoindoline-5-carboxamide] |
| 40.3 | 59.3 | 345 |  |  | O=C1CCC(N2Cc3cc(C(=O)N[C@@H](c4cccc(Cl)c4)C4CC4)ccc3C2=O)C(=O)N1 (stereo in doubt) [Compound 27, N-((*R)-(3-chlorophenyl)(cyclopropyl)methyl)-2-(2,6-dioxopiperidin-3-yl)-1-oxoisoindoline-5-carboxamide] |
|  |  | 95 | 28.5 | 73.9 | O=C1CC[C@@H](N2Cc3cc(C(=O)N[C@H](c4ccc(F)cc4Cl)C4CCC4)ccc3C2=O)C(=O)N1 (racemic) [Compound 52, N-((*S)-(2-chloro-4-fluorophenyl)(cyclobutyl)methyl)-2-((*R)-2,6-dioxopiperidin-3-yl)-1-oxoisoindoline-5-carboxamide] |
| 36.8 | 64.7 | 140 |  |  | O=C1CCC(N2Cc3cc(C(=O)N[C@H](c4ccccc4Cl)C4CC4)ccc3C2=O)C(=O)N1 (stereo in doubt) [Compound 12, N-((*S)-(2-chlorophenyl)(cyclopropyl)methyl)-2-(2,6-dioxopiperidin-3-yl)-1-oxoisoindoline-5-carboxamide] |
| 18.4 | 62.1 | 153 |  |  | O=C1CCC(N2Cc3cc(C(=O)N[C@H](c4ncc(F)cc4Cl)C4CCC4)ccc3C2=O)C(=O)N1 (stereo in doubt) [Compound 81, N-((*S)-(3-chloro-5-fluoropyridin-2-yl)(cyclobutyl)methyl)-2-(2,6-dioxopiperidin-3-yl)-1-oxoisoindoline-5-carboxamide] |
|  |  | 363 | 63.1 | 63.2 | O=C1CCC(N2Cc3cc(C(=O)N[C@H](c4ncccc4F)C4CCC4)ccc3C2=O)C(=O)N1 (stereo in doubt) [Compound 24, N-((*S)-cyclobutyl(3-fluoropyridin-2-yl)methyl)-2-(2,6-dioxopiperidin-3-yl)-1-oxoisoindoline-5-carboxamide] |
| 27.5 | 69.8 | 77.7 |  |  | O=C1CC[C@@H](N2Cc3cc(C(=O)NC(c4ccc(F)cc4)C4CCCC4)ccc3C2=O)C(=O)N1 (single isomer, unassigned) [Compound 62, N-((*S)-cyclopentyl(4-fluorophenyl)methyl)-2-((R)-2,6-dioxopiperidin-3-yl)-1-oxoisoindoline-5-carboamide] |
| 37 | 65.9 | 293 |  |  | O=C1CCC(N2Cc3cc(C(=O)N[C@H](c4ccc(F)cc4Cl)C4CC4)ccc3C2=O)C(=O)N1 (stereo in doubt) [Compound 13, N-((*S)-(2-chloro-4-fluorophenyl)(cyclopropyl)-yl)methyl)-2-(2,6-dioxopiperidin-3-yl)-1-oxoisoindoline-5-carboxamide] |
| 19.9 | 64.1 | 218 |  |  | O=C1CCC(N2Cc3cc(C(=O)N[C@H](c4ccc(F)cc4)C4CCOCC4)ccc3C2=O)C(=O)N1 (stereo in doubt) [Compound 38, 2-(2,6-dioxopiperidin-3-yl)-N-((*S)-(4-fluorophenyl)(tetrahydro-2H-pyran-4-yl)methyl)-1-oxoisoindoline-5-carboxamide] |
| 48.3 | 55.4 | 789 |  |  | O=C1CCC(N2Cc3cc(C(=O)N[C@@H](c4cccc(Cl)c4)C4CCC4)ccc3C2=O)C(=O)N1 (stereo in doubt) [Compound 68, N-((3-chlorophenyl)(cyclobutyl)methyl)-2-(2,6-dioxopiperidin-3-yl)-1-oxoisoindoline-5-carboxamide] |
| 73.1 | 50.6 | 5190 |  |  | O=C1CCC(N2Cc3cc(C(=O)N[C@H](c4ccc(Cl)cc4)C4CC4)ccc3C2=O)C(=O)N1 (stereo in doubt) [Compound 3, N—((*S)-(4-chlorophenyl)(cyclopropyl)methyl)-2-(2,6-dioxopiperidin-3-yl)-1-oxoisoindoline-5-carboxamide] |
| 32 | 61.3 | 198 |  |  | O=C1CCC(N2Cc3cc(C(=O)NC(c4cccc(F)c4)C4CCC4)ccc3C2=O)C(=O)N1 (stereo not shown) [Compound 23, N-(cyclobutyl(3-fluorophenyl)methyl)-2-(2,6-dioxopiperidin-3-yl)-1-oxoisoindoline-5-carboxamide] |
| 24.1 | 50.4 | 3880 |  |  | O=C1CCC(N2Cc3cc(C(=O)N[C@@H](c4ccc(F)cc4)C4CCC4)ccc3C2=O)C(=O)N1 (stereo in doubt) [Compound 75, N-((*R)-cyclobutyl(4-fluorophenyl)methyl)-2-(2,6-dioxopiperidin-3-yl)-1-oxoisoindoline-5-carboxamide] |
|  |  | 50.3 | 58 | 73.9 | O=C1CCC(N2Cc3cc(C(=O)N[C@@H](c4c(F)cccc4Cl)C4CCC4)ccc3C2=O)C(=O)N1 (stereo in doubt) [Compound 70, N-((*R)-(2-chloro-6-fluorophenyl)(cyclobutyl)methyl)-2-(2,6-dioxopiperidin-3-yl)-1-oxoisoindoline-5-carboxamide] |
| 14.9 | 55.4 | 394 |  |  | O=C1CCC(N2Cc3cc(C(=O)N[C@H](c4ncccc4F)C4(F)CCC4)ccc3C2=O)C(=O)N1 (stereo in doubt) [Compound 88, 2-(2,6-dioxopiperidin-3-yl)-N-((*R)-(1-fluorocyclobutyl)(3-fluoropyridin-2-yl)methyl)-1-oxoisoindoline-5-carboxamide] |
|  |  | 180 | 33.6 | 67 | O=C1CCC(N2Cc3cc(C(=O)N[C@@H](c4ccc(Cl)cc4)C4CC4)ccc3C2=O)C(=O)N1 (stereo in doubt) [Compound 2, N—((*R)-(4-chlorophenyl)(cyclopropyl)methyl)-2-(2,6-dioxopiperidin-3-yl)-1-oxoisoindoline-5-carboxamide] |
| 14.2 | 61.1 | 652 |  |  | O=C1CCC(N2Cc3cc(C(=O)N[C@H](c4ncc(Cl)cc4F)C4CCC4)ccc3C2=O)C(=O)N1 (stereo in doubt) [Compound 80, N-((*S)-(5-chloro-3-fluoropyridin-2-yl)(cyclobutyl)methyl)-2-(2,6-dioxopiperidin-3-yl)-1-oxoisoindoline-5-carboxamide] |
| 48.3 | 70.7 | 79.7 |  |  | O=C1CCC(N2Cc3cc(C(=O)NC(c4c(F)cccc4F)C4CCC4)ccc3C2=O)C(=O)N1 (stereo not shown) [Compound 22, N-(cyclobutyl(2,6-difluorophenyl)methyl)-2-(2,6-dioxopiperidin-3-yl)-1-oxoisoindoline-5-carboxamide] |
